Measured values from patent publication US11492335B2, “Aryl or heteroaryl triazolone derivatives or salts thereof, or pharmaceutical compositions comprising the same” (YUHAN CORPORATION, priority 2018, dated 2022).
Counter-ions that a name gives are not always drawn.

What was measured:
Assay type in all cases: biochemical
[1] = molecular target: T1, recombinant human MAO-A (monoamine oxidase-A) (Homo sapiens, UniProt P21397); experiment: Activity on recombinant human MAO-A, Amplex Red method, 0.5 mM tyramine substrate; conditions: 0.5 mM tyramine substrate, read-out: Inhibitory Activity (IC50, nM) MAO-A
T1 construct: purchased Sigma-Aldrich
T1 sequence (P21397 1-527): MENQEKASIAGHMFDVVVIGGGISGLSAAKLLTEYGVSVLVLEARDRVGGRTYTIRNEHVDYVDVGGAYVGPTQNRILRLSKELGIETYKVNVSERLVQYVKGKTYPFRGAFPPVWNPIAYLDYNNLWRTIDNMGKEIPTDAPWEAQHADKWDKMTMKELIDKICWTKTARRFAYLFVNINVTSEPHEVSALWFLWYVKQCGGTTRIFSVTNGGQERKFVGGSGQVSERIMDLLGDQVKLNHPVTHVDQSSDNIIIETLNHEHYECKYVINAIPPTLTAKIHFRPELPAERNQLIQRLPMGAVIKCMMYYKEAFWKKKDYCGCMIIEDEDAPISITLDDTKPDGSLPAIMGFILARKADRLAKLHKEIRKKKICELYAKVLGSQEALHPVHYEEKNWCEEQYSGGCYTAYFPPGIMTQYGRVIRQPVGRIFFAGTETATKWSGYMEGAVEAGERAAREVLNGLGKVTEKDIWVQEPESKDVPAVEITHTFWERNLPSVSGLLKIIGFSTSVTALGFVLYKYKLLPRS
Procedure, shortened: (§1)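 8-point, 1:3 dose-response, four-parameter logistic IC50 from reduction in fluorescence rate versus DMSO control. HRP/Amplex Red detection of H2O2 (ex 544, em 590 nm) after 30 min, 37 °C compound–enzyme preincubation in pH 7.4 phosphate buffer. MAO-A substrate: 0.5 mM tyramine; MAO-B: 1 mM benzylamine.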

[2] = molecular target: T2, recombinant human MAO-B (monoamine oxidase-B) (Homo sapiens, UniProt P27338); experiment: Activity on recombinant human MAO-B, Amplex Red method, 1 mM benzylamine substrate; conditions: 1 mM benzylamine substrate, read-out: Inhibitory Activity (IC50, nM) MAO-B
T2 construct: purchased Sigma-Aldrich
T2 sequence (P27338 1-520): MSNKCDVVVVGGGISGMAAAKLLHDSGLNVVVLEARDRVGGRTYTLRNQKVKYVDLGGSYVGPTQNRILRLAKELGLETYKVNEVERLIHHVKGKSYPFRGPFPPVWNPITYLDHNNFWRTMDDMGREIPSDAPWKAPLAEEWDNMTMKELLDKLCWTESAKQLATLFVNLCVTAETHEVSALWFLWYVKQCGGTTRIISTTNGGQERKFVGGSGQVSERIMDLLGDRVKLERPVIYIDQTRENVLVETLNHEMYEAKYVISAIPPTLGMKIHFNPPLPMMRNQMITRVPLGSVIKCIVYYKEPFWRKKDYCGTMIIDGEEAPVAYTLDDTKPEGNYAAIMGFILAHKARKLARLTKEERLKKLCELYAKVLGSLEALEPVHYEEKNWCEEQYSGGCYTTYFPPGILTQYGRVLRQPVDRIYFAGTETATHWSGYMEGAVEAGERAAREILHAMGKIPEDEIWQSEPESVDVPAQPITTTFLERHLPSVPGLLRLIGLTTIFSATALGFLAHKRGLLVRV
Procedure, shortened: as §1

[3] = molecular target: T3, recombinant human DAO (diamine oxidase) (Homo sapiens, UniProt P19801); experiment: Activity on recombinant human DAO, Amplex Red method, 1 mM putrescine substrate; conditions: recombinant human DAO, 1 mM putrescine substrate; read-out: Inhibitory Activity (IC50, nM) DAO
T3 construct: purchased R&D systems
T3 sequence (P19801 20-751): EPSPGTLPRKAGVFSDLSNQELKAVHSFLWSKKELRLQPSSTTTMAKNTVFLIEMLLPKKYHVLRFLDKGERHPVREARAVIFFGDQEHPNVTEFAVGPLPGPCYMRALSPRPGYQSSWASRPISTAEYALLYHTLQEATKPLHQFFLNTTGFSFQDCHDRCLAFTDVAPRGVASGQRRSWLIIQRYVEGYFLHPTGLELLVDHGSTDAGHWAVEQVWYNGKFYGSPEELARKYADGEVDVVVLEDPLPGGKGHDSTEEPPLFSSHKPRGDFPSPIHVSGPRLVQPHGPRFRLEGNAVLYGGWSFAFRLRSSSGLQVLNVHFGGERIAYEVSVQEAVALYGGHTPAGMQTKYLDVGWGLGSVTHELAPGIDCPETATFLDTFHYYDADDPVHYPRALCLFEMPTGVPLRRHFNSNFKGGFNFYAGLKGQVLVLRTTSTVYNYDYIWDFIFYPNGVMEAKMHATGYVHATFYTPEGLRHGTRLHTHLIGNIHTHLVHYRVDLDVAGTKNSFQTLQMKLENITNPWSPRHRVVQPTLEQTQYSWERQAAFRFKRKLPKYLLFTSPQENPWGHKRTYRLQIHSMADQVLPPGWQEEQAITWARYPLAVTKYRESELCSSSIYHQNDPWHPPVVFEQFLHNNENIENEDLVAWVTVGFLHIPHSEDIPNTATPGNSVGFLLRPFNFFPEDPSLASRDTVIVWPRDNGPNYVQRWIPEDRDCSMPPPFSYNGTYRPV
Procedure, shortened: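 Inhibition of recombinant human DAO (diamine oxidase, R&D systems) was assessed with the Amplex Red Hydrogen Peroxide Assay Kit. Hydrogen peroxide produced from 1 mM putrescine was detected through an HRP-coupled reaction that converts Amplex Red into fluorescent resorufin, read at 544 nm excitation and 590 nm emission. IC50 values came from four-parameter logistic fits in GraphPad Prism.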

[4] = molecular target: T4, recombinant human VAP-1 (Homo sapiens, UniProt Q16853); experiment: Activity on recombinant human VAP-1, Amplex Red HRP-coupled hydrogen peroxide assay, benzylamine substrate; conditions: recombinant human VAP-1, benzylamine substrate; read-out: Inhibitory Activity (IC50, nM) human VAP-1
T4 construct: purchased R&D systems
T4 sequence (Q16853 1-763): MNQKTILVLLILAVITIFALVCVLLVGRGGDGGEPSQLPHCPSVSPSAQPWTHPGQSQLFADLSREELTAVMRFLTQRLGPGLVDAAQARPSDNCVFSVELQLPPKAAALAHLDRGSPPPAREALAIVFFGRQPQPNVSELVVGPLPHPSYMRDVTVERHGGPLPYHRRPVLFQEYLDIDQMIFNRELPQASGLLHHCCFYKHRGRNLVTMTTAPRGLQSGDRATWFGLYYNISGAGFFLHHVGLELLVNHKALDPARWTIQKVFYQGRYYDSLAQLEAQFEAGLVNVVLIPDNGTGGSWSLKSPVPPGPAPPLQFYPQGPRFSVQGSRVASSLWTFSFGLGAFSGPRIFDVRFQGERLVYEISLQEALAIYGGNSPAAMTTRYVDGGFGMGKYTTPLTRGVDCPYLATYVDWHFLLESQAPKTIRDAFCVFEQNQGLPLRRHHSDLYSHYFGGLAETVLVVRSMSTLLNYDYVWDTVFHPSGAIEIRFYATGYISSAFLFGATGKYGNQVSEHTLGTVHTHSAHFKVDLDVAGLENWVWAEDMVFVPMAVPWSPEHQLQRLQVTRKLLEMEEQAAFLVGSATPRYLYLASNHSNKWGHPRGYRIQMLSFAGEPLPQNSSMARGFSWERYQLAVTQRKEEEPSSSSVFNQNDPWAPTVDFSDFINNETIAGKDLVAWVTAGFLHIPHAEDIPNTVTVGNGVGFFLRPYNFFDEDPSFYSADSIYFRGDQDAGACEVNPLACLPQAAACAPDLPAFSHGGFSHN
Procedure, shortened: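 Compounds were preincubated with purified enzyme in 50 mM sodium phosphate pH 7.4 at 37 °C for 30 min, then 200 uM Amplex Red, 1 mM benzylamine and 1 U/mL HRP were added. Resorufin fluorescence (ex 544/em 590 nm) was followed over 1-2 h; IC50 came from 4-parameter fits of signal-rate inhibition.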

IC50 [1] [nM] | IC50 [2] [nM] | IC50 [3] [nM] | IC50 [4] [nM] | Compound
13000 | > 10000 | 350 | 2.5 | NC/C(=C\F)Cn1ncn(-c2cccc(-c3ccc(N4CCCC4)cc3)n2)c1=O [Example 183, 2-[(2E)-2-(aminomethyl)-3-fluoroprop-2-en-1-yl]-4-{6-[4-(pyrrolidin-1-yl)phenyl]pyridin-2-yl}-2,4-dihydro-3H-1,2,4-triazol-3-one hydrochloride]
14000 | > 10000 | 110 | 1.4 | NC/C(=C\F)Cn1ncn(-c2cccc(-c3ccc(N4CCNCC4)cc3)n2)c1=O [Example 184, 2-[(2E)-2-(aminomethyl)-3-fluoroprop-2-en-1-yl]-4-{6-[4-(piperazin-1-yl)phenyl]pyridin-2-yl}-2,4-dihydro-3H-1,2,4-triazol-3-one hydrochloride]
> 100000 | > 10000 | 2.5 | 2.4 | NC/C(=C\F)Cn1ncn(-c2cccc(-c3cccc(N4CCNCC4)c3)n2)c1=O [Example 185, 2-[(2E)-2-(aminomethyl)-3-fluoroprop-2-en-1-yl]-4-{6-[3-(piperazin-1-yl)phenyl]pyridin-2-yl}-2,4-dihydro-3H-1,2,4-triazol-3-one hydrochloride]
> 100000 | > 10000 | < 10 | 0.91 | NC/C(=C\F)Cn1ncn(-c2cccc(-c3ccc(C(=O)N4CCOCC4)cc3)n2)c1=O [Example 186, 2-[(2E)-2-(aminomethyl)-3-fluoroprop-2-en-1-yl]-4-{6-[4-(morpholin-4-ylcarbonyl)phenyl]pyridin-2-yl}-2,4-dihydro-3H-1,2,4-triazol-3-one hydrochloride]
> 100000 | 940 | < 10 | 0.45 | NC/C(=C\F)Cn1ncn(-c2cccc(-c3ccc(C(F)(F)F)nc3)n2)c1=O [Example 187, 2-[(2E)-2-(aminomethyl)-3-fluoroprop-2-en-1-yl]-4-[6′-(trifluoromethyl)-2,3′-bipyridin-6-yl]-2,4-dihydro-3H-1,2,4-triazol-3-one hydrochloride]
> 100000 | 23000 | 4 | 0.6 | CN(C)c1ccc(-c2cccc(-n3cnn(C/C(=C/F)CN)c3=O)n2)cn1 [Example 188, 2-[(2E)-2-(aminomethyl)-3-fluoroprop-2-en-1-yl]-4-[6′-(dimethylamino)-2,3′-bipyridin-6-yl]-2,4-dihydro-3H-1,2,4-triazol-3-one hydrochloride]
> 100000 | > 10000 | < 30 | 0.53 | NC/C(=C\F)Cn1ncn(-c2cccc(-c3ccc(N4CCOCC4)nc3)n2)c1=O [Example 189, 2-[(2E)-2-(aminomethyl)-3-fluoroprop-2-en-1-yl]-4-[6′-(morpholin-4-yl)-2,3′-bipyridin-6-yl]-2,4-dihydro-3H-1,2,4-triazol-3-one]
> 100000 | 190 | 5 | 0.6 | Cc1cc(-c2cccc(-n3cnn(C/C(=C/F)CN)c3=O)n2)cnc1F [Example 190, 2-[(2E)-2-(aminomethyl)-3-fluoroprop-2-en-1-yl]-4-(6′-fluoro-5′-methyl-2,3′-bipyridin-6-yl)-2,4-dihydro-3H-1,2,4-triazol-3-one hydrochloride]
> 100000 | 1200 | 19 | 0.5 | CN(C)c1ncc(-c2cccc(-n3cnn(C/C(=C/F)CN)c3=O)n2)cc1F [Example 191, 2-[(2E)-2-(aminomethyl)-3-fluoroprop-2-en-1-yl]-4-[6′-(dimethylamino)-5′-fluoro-2,3′-bipyridin-6-yl]-2,4-dihydro-3H-1,2,4-triazol-3-one hydrochloride]
